We go through four compounds from ChEMBL document CHEMBL1130937, “Stereoselective synthesis of a novel and bifunctional endothelin antagonist, IRL 3630” (Bioorg Med Chem Lett, 1998).

The target in assay [1] is T1, Endothelin receptor type B (Homo sapiens, UniProt P24530).
T1 sequence (P24530 whole entry): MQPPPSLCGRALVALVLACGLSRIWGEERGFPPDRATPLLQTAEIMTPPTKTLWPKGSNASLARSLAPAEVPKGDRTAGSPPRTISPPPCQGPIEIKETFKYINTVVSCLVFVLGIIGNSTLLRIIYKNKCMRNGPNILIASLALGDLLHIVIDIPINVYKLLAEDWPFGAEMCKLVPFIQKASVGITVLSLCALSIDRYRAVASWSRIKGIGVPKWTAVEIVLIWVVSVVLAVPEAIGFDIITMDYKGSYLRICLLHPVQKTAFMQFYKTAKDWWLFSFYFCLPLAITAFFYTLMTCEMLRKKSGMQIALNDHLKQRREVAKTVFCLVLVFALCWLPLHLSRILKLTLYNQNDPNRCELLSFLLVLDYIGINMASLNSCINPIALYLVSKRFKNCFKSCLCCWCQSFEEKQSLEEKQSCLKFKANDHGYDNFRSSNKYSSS
As to the kind of experiment: Compound was tested for the binding affinity against Endothelin B receptor.

Assay [2] has as its target T2, Endothelin-1 receptor (Homo sapiens, UniProt P25101).
T2 sequence (P25101 whole entry): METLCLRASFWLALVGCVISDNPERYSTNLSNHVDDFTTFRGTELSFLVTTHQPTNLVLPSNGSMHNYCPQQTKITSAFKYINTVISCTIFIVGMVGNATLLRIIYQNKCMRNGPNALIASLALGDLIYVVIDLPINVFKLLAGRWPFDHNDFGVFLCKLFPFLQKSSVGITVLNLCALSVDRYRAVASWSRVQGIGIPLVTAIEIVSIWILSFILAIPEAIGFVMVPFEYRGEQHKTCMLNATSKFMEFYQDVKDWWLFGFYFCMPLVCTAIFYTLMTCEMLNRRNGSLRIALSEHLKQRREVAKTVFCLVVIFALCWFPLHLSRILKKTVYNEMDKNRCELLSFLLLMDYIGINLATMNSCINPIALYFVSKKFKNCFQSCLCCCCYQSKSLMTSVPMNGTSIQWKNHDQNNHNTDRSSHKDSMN
As to the kind of experiment: Compound was tested for the binding affinity against Endothelin A receptor.

Turning to `CCCCS(=O)(=O)NC(=O)[C@H](NC(=O)[C@H](Cc1ccc(-c2ccno2)cc1)N(C)C(=O)c1cc(C)cc(C)c1)C(C)C`, the Ki (in general, the dissociation constant of the complex between target and ligand, obtained from inhibition or displacement) was determined as 1200 nM in assay [1] and 27000 nM in assay [2]. On to `CCCCS(=O)(=O)NC(=O)[C@@H](NC(=O)[C@@H](Cc1ccc(-c2ccno2)cc1)N(C)C(=O)c1cc(C)cc(C)c1)C(C)C`, for which, in assay [2], the Ki stood at 1.5 nM. In the case of `CCCCS(=O)(=O)NC(=O)[C@H](NC(=O)[C@@H](Cc1ccc(-c2ccno2)cc1)N(C)C(=O)c1cc(C)cc(C)c1)C(C)C`, the inhibition constant (Ki) in assay [1] was found to be 24 nM; in assay [2], 850 nM.

As for `CCCCS(=O)(=O)NC(=O)[C@@H](NC(=O)[C@H](Cc1ccc(-c2ccno2)cc1)N(C)C(=O)c1cc(C)cc(C)c1)C(C)C`, the Ki was found to be 1200 nM in assay [1] and 6800 nM in assay [2].
